# Results: ChEMBL document CHEMBL4431321, “Profiling of Flavonol Derivatives for the Development of Antitrypanosomatidic Drugs” (J Med Chem, 2016)
# Active and inactive are the calls of the source. The rule behind the calls is not given here.
# How the values were obtained:
# [1] = Cytotoxicity against human THP1 cells after 72 hrs by MTT assay; type: cell-based; conditions: THP-1 cells; for MNTC at 72 h: read-out: NOAEL
# in vitro = conditions: human, THP-1 cells
# Description: Selectivity index, ratio of CC50 for human THP1 cells to EC50 for Trypanosoma brucei brucei Lister 427 bloodstream forms
# [2] = test system: Trypanosoma brucei brucei; experiment: Antitrypanosomal activity against Trypanosoma brucei brucei Lister 427 bloodstream forms after 72 hrs by resazurin-based assay; type: functional, organism-based; conditions: Lister 427, 72 h
# Trypanosoma brucei [3] = experiment: Inhibition of Trypanosoma brucei PTR1 at 50 uM using H2B as substrate incubated for 10 mins followed by addition of NADPH measured for 10 to 50 mins
# WI-38 = experiment: Cytotoxicity against human WI38 cells at 100 uM after 48 hrs by cell titer glo assay; type: cell-based; conditions: wi-38, 48 h
# [4] = test system: Trypanosoma brucei brucei; experiment: Antitrypanosomal activity against Trypanosoma brucei brucei Lister 427 bloodstream forms at 10 uM after 72 hrs by resazurin-based assay; type: functional, organism-based
# 786-0 = experiment: Mitochondrial toxicity in human 786-O cells incubated for 6 hrs by mitotracker red staining based-uptake method; type: cell-based; conditions: 786-0, 6 h
# A549 = experiment: Cytotoxicity against human A549 cells at 100 uM after 48 hrs by cell titer glo assay; type: cell-based; conditions: a549, 48 h
# Leishmania mexicana [5] = experiment: Inhibition of Leishmania mexicana PTR1 at 50 uM using H2B as substrate incubated for 10 mins followed by addition of NADPH measured for 10 to 50 mins
# Cytochrome P450 1A2 = biological target: T1, Cytochrome P450 1A2 (Homo sapiens, UniProt P05177); experiment: Inhibition of human microsomal CYP1A2 expressed in baculovirus infected BTI-TN-5B1-4 cells at 10 uM incubated for 30 mins by luciferase assay; type: ADME; conditions: bti-tn-5b1-4, 0.5 h, 10 µM
# T1 sequence (P05177 whole entry): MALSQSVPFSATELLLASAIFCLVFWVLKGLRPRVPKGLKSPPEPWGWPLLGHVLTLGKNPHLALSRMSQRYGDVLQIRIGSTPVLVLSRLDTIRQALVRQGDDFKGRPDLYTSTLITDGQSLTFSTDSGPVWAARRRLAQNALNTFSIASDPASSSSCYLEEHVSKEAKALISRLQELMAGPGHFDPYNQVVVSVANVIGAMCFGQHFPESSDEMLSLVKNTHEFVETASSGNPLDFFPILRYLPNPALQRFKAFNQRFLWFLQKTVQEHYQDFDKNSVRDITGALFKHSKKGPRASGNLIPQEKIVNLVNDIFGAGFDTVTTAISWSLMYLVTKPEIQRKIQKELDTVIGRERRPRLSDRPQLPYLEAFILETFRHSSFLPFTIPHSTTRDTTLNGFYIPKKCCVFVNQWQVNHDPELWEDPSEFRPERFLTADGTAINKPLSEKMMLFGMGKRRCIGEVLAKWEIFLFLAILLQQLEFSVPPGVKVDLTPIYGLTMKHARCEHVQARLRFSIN
# [6] = biological target: T2, Dihydrofolate reductase (Homo sapiens) (UniProt P00374); experiment: Inhibition of human DHFR at 50 uM using folic aid as substrate by spectrophotometric analysis
# T2 sequence (whole entry): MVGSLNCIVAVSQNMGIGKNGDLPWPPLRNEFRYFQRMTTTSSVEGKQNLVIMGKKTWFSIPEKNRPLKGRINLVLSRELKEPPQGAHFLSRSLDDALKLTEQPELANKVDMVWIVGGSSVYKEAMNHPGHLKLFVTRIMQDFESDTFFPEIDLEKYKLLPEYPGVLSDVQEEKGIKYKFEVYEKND
# [7] = test system: Trypanosoma brucei brucei; experiment: Antitrypanosomal activity against Trypanosoma brucei brucei Lister 427 bloodstream forms assessed as synergy coefficient at 1.25 to 5 uM after 72 hrs in presence of MTX by resazurin-based assay; type: functional
# Trypanosoma brucei [8] = experiment: Inhibition of Trypanosoma brucei DHFR at 50 uM using folic aid as substrate by spectrophotometric analysis
# [9] = biological target: Thymidylate synthase (Homo sapiens) (UniProt P04818); experiment: Inhibition of human thymidylate synthase at 50 uM using folic aid as substrate by spectrophotometric analysis
# Leishmania mexicana [10] = experiment: Inhibition of Leishmania mexicana DHFR at 50 uM using folic aid as substrate by spectrophotometric analysis
# Sequence of Thymidylate synthase (Homo sapiens) (P04818 2-313 limits assumed): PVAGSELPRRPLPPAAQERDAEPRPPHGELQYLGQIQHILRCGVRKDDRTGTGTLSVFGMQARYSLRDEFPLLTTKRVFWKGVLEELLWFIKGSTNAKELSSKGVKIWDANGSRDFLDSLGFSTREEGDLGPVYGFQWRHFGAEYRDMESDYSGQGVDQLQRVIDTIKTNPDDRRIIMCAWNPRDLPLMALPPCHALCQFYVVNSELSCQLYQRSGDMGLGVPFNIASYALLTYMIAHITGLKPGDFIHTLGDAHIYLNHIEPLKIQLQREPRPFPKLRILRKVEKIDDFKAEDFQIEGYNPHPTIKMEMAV
structure (smiles),measurement,setting,value
N=C(N)c1ccc(OCCCCCOc2ccc(C(=N)N)cc2)cc1 [PENTAMIDINE],MNTC at 72 h,[1],10 µM
same,selectivity ratio,in vitro,6440
C[C@H]1O[C@@H](O[C@@H]2[C@H](Oc3cc(O)c4c(c3)OC(c3ccc(O)cc3)CC4=O)O[C@@H](CO)[C@H](O)[C@H]2O)[C@@H](O)[C@@H](O)[C@@H]1O (some centres undefined),IC50,[2],< 30 µM
O=C(O)/C=C/c1cccc(O)c1,IC50,[2],< 30 µM
Cc1cc(O)c2c(c1)C(=O)c1cc(O)cc(O)c1C2=O [EMODIN],IC50,[2],< 30 µM
COc1cccc(-c2oc3ccccc3c(=O)c2O)c1,inhibition,Trypanosoma brucei [3],inactive
same,Activity,WI-38,Non-Toxic
same,MNTC at 72 h,[1],10 µM
same,Activity,[4],Active
same,Activity,786-0,Non-Toxic
same,Activity,A549,Non-Toxic
same,inhibition,Leishmania mexicana [5],inactive
same,inhibition (INH),Cytochrome P450 1A2,Not Active
same,selectivity ratio,in vitro,4
COc1cc(-c2cc(=O)c3c(O)cc(O)cc3o2)ccc1O [CHRYSOERIOL],IC50,[2],< 30 µM
O=c1c(O)c(-c2ccc(O)cc2)oc2ccc(O)cc12,inhibition,Trypanosoma brucei [3],3%
same,Activity,WI-38,Non-Toxic
same,inhibition,[6],< 30%
same,CI,[7],>1.5
same,MNTC at 72 h,[1],20 µM
same,Activity,[4],Active
same,inhibition,Trypanosoma brucei [8],< 25%
same,Activity,786-0,Non-Toxic
same,inhibition,[9],inactive
same,Activity,A549,Non-Toxic
same,inhibition (INH),Cytochrome P450 1A2,Not Active
same,inhibition,Leishmania mexicana [10],< 25%
same,selectivity ratio,in vitro,7
same,EC50,[2],2.32 µM
CC1(C(=O)O)CCC2(C)CCC3(C)C(=CC(=O)C4C5(C)CCC(OC6OC(C(=O)O)C(O)C(O)C6OC6OC(C(=O)O)C(O)C(O)C6O)C(C)(C)C5CCC43C)C2C1 (centres undefined),IC50,[2],< 30 µM
COc1ccc(-c2oc3cc(OC)ccc3c(=O)c2O)cc1,Activity,WI-38,Non-Toxic
same,MNTC at 72 h,[1],10 µM
same,Activity,[4],Active
same,Activity,786-0,Non-Toxic
same,Activity,A549,Non-Toxic
same,inhibition (INH),Cytochrome P450 1A2,Not Active
same,selectivity ratio,in vitro,9
O=c1c(O)c(-c2cccc(O)c2)oc2cc(O)ccc12,inhibition,Trypanosoma brucei [3],47%
same,Activity,WI-38,Non-Toxic
same,inhibition,[6],< 30%
same,CI,[7],>1
same,CC50 at 72 h,[1],80 µM
same,Activity,[4],Active
same,inhibition,Trypanosoma brucei [8],< 25%
same,Activity,786-0,Non-Toxic
same,inhibition,[9],inactive
same,Activity,A549,Non-Toxic
same,inhibition (INH),Cytochrome P450 1A2,Not Active
same,inhibition,Leishmania mexicana [10],< 25%
same,selectivity ratio,in vitro,6
same,EC50,[2],12.3 µM
O=c1cc(-c2ccc(O)c(O)c2)oc2cc(O)cc(O)c12 [LUTEOLIN],IC50,[2],< 30 µM
O=C(O)/C=C/c1ccc(O)cc1 [COUMARIC ACID],IC50,[2],< 30 µM
COc1ccc([C@H]2CC(=O)c3c(O)cc(O[C@@H]4O[C@H](CO[C@@H]5O[C@@H](C)[C@H](O)[C@@H](O)[C@H]5O)[C@@H](O)[C@H](O)[C@H]4O)cc3O2)cc1O,IC50,[2],< 30 µM
O=C1c2c(O)cccc2C(C2OC(CO)C(O)C(O)C2O)c2cc(CO)cc(O)c21 (centres undefined),IC50,[2],< 30 µM
Oc1cc(O)c2c(c1)O[C@H](c1ccc(O)c(O)c1)[C@H](O)C2 [(-)-EPICATECHIN],IC50,[2],< 30 µM
Oc1cc(O)c2c(c1)O[C@H](c1ccc(O)c(O)c1)[C@@H](O)C2 [CIANIDANOL],IC50,[2],< 30 µM
COc1ccc(/C=C/C(=O)O)cc1O [ISOFERULIC ACID],IC50,[2],< 30 µM
COc1ccc([C@H]2CC(=O)c3c(O)cc(O[C@@H]4O[C@H](CO)[C@@H](O)[C@H](O)[C@H]4O[C@@H]4O[C@@H](C)[C@H](O)[C@@H](O)[C@H]4O)cc3O2)cc1O,IC50,[2],< 30 µM
O=c1cc(-c2ccccc2)oc2cccc(O)c12 [5-HYDROXYFLAVONE],IC50,[2],< 30 µM
COc1ccc2c(=O)c(O)c(-c3ccc(OC)c(OC)c3)oc2c1,Activity,WI-38,Non-Toxic
same,MNTC at 72 h,[1],25 µM
same,Activity,[4],Active
same,Activity,786-0,Non-Toxic
same,Activity,A549,Non-Toxic
same,inhibition (INH),Cytochrome P450 1A2,Not Active
same,selectivity ratio,in vitro,8
O=C(/C=C/c1ccc(O)c(O)c1)O[C@@H]1C[C@](O)(C(=O)O)C[C@@H](O)[C@H]1O [CHLOROGENIC ACID],IC50,[2],< 30 µM
O=c1oc2c(O)c(O)cc3c(=O)oc4c(O)c(O)cc1c4c23,IC50,[2],< 30 µM
